From publication PMC9356065, “Novel psoralen derivatives as anti-breast cancer agents and their light-activated cytotoxicity against HER2 positive breast cancer cells” (Scientific Reports, 2022)

Legend:
[1] = target: T1, aromatase (CYP19) (Homo sapiens, UniProt P11511); assay: Inhibition of aromatase (AIA); assay type: biochemical; conditions: at 12.5 µM; I = %inhibition lower than 50%; read-out: Aromatase inhibitory activity %Inhibition
T1 sequence (P11511 1-503): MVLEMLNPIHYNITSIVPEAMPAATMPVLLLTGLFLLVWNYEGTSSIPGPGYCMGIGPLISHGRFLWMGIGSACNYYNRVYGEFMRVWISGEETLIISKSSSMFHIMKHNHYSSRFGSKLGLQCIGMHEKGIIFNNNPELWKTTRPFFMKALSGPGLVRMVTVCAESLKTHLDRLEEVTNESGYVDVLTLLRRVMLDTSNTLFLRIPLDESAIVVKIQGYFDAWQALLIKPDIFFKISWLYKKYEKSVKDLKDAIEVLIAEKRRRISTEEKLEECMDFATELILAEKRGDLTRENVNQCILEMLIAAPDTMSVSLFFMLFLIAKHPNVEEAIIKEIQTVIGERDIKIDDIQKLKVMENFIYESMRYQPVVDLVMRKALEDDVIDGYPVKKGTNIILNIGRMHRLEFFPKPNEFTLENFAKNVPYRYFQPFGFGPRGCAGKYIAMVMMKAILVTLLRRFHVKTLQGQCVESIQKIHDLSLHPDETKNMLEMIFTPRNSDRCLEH
Procedure: Estrogens are the critical risk factor for breast cancer initiation and progression and the aromatase enzyme involves in the final step conversion of androgens to estrogens[21],[22]. […] In this study, the synthesized psoralen derivatives were also tested for aromatase inhibitory activity (AIA) which is considered to be one of chemopreventive mechanisms for hormone dependent breast cancer.
Inhibition of the aromatase was performed using the method designed by Stresser et al.[39].

[2] = tested on: MDA-MB-231; assay: MTT cytotoxicity, 48 h, without UVA; assay type: cell-based; conditions: Homo sapiens, MDA-MB-231, light or radiation study; for IC50: hormone-independent breast cancer, read-out: Cytotoxic activity MDA-MB-231 IC50
Procedure: (§1) MDA-MB-231 (triple-negative breast cancer) was obtained from M.D. Anderson Cancer Center, Houston, TX, USA). T47-D (hormone-dependent breast carcinoma), SK-BR-3 (human HER2+ breast cancer), and MRC-5 (normal embryonic lung fibroblast) were obtained from the American Type Culture Collection (ATCC, Manassas, VA, USA).
(§2) The cytotoxic effect of tested compounds was evaluated in two breast cancer cell lines, MDA-MB-231 and T47-D. Number of survival cells after exposure to tested compounds for 48 h was determined by MTT assay, as previously described.

[3] = tested on: differentiated HL-60 cells; assay: Inhibition of TPA-induced superoxide anion radical generation (HL-60 Antioxidant); assay type: cell-based, human; conditions: Homo sapiens, HL-60; screening concentration 100 µM; read-out: HL-60 Antiox. %Inh
Description: Inhibition of 12-O-tetradecanoylphorbol-13-acetate (TPA)-induced superoxide anion radical generation in differentiated HL-60 cells (HL-60 Antioxidant) TPA-induced superoxide anion radical formation was detected in differentiated HL-60 cells by photometric determination of cytochrome c reduction as previously described by Gerhäuser et al., 2003.ii Superoxide dismutase (SOD;15U) was a positive control. […]

[4] = Scavenging of diphenyl-picryl-hydrazyl radicals (DPPH); conditions: screening concentration 250 µM
Description: 1. Chemoprevention activity

[5] = Inhibition of superoxide radical formation by xanthine/xanthine oxidase (XXO); assay type: biochemical; conditions: screening concentration 500 µM
Description: 1. […]

[6] = MTT cytotoxicity towards normal cells, 48 h; assay type: cell-based; conditions: MRC-5 cells (normal embryonic lung fibroblasts), human embryonal lung fibroblast cell, without UVA, read-out: Cytotoxic activity MRC-5 IC50
Procedure: (§3) Additionally, the cytotoxicity towards normal cells, human embryonal lung fibroblast cell MRC-5 was also assessed.
as §1, §2

[7] = tested on: T47-D; assay: MTT cytotoxicity, 48 h, without UVA; assay type: cell-based, human; conditions: for IC50: hormone-dependent breast cancer, read-out: Cytotoxic activity T47-D IC50; for Selectivity Index (SI): SI = IC50 for MRC-5/IC50 for T47-D
Procedure: as §3, §1, §2

[8] = tested on: circulating estrogen levels; design: method as in PMID 10098905; conditions: female rats, dose-dependent; cited from earlier work
[9] = tested on: SK-BR-3; assay: Dark and light-activated (UVA) cytotoxicity, MTT; assay type: cell-based; conditions: Homo sapiens, dark, HER2+ breast cancer
[10] = tested on: SK-BR-3; assay: Dark and light-activated (UVA) cytotoxicity, MTT; assay type: cell-based, human; conditions: for IC50: Homo sapiens, SK-BR-3, light or radiation study, irradiation with UVA (2.0 J cm^−2), HER2+ breast cancer
Procedure: (§4) The selected compounds were screened for their IC50 values against both HER2+ breast cancer (SK-BR-3), and HER2− breast cancer (MDA-MB-231) in both dark and light-activated conditions (Table 2). Additionally, a negative control study was also performed with SK-BR-3 and MDA-MB-231 cells in the absence of tested compound under UVA irradiation (See Fig S7., Supporting Information).
(§5) SK-BR-3 and MDA-MB-231 cells were seeded into 96-well cell culture plates at 5 × 10^3 cells/well and incubated for 24 h at 37 °C under 5% CO2. After that, the cells were treated with 50 μM of psoralen derivatives in DMEM with 10% FBS and the cells were continued incubation for another 4 h. After incubation, the cells were washed with PBS (3 times) and then irradiated by a 365 nm lamp with the light intensity of 2.0 J cm^−2 for 12.5 min before re-incubation for another 72 h. After incubation, the cell was treated with methylthiazolyldiphenyl-tetrazolium bromide (MTT reagent 200 μL, 0.5 mg mL^−1, Sigma-Aldrich) for 2 h. After reagent removal, DMSO was added to dissolve the formazan product and the cell viabilities were determined through UV–Vis absorption of the resulting formazan at wavelength 560 nm using a microplate reader (BMG Labtech/SPECTROstar Nano). The cell morphology images were captured by using a light microscope (Microscope Nikon, inverted digital) at 20X magnification prior to treating with MTT reagent.

[11] = tested on: MDA-MB-231; assay: Dark and light-activated (UVA) cytotoxicity, MTT; assay type: cell-based; conditions: Homo sapiens, dark, HER2− breast cancer
[12] = tested on: MDA-MB-231; assay: Dark and light-activated (UVA) cytotoxicity, MTT; assay type: cell-based; conditions: Homo sapiens, MDA-MB-231, light or radiation study; irradiation with UVA (2.0 J cm^−2); HER2− breast cancer
Procedure: as §4, §5

[13] = tested on: SK-BR-3 cells; assay: Cell morphology by light microscope; assay type: cell-based, human; conditions: 48 h
Procedure: as §5, with “After incubation, the cells were washed with PBS (3 times) and then irradiated by a 365 nm lamp with the light intensity of 2.0 J cm^−2 for 12.5 min before re-incubation for another 72 h.” left out

[14] = tested on: 3T3; design: method as in PMID 32815004, PMID 20693013; conditions: cited from earlier work
[15] = tested on: ERα activity in MCF-7 cells; design: method as in PMID 31673107; conditions: read-out: IC50 antagonism of ERα activity in MCF-7 cells; cited from earlier work
[16] = tested on: estrogen receptor in MCF-7 breast cancer cells; design: method as in PMID 23053665; conditions: MCF-7 breast cancer cells and tamoxifen-resistant clone; cited from earlier work
[17] = Homo sapiens, T47D, light or radiation study, 48 h, without UVA

Row | Structure (SMILES) | IC50 [2] [µM] | IC50 at 48 h [6] [µM] | IC50 [7, 17] [µM] | Selectivity Index (SI) [7] | circulating estrogen levels [8] | IC50 [9] [µM] | IC50 [10] [µM] | IC50 [11] [µM] | IC50 [12] [µM] | other results
1 | COc1c2occc2c(NC(=O)c2cccc([N+](=O)[O-])c2)c2ccc(=O)oc12 [3f, N-(9-Methoxy-7-oxo-7H-furo[3,2-g]chromen-4-yl)-3-nitrobenzamide] | 71 ± 2.34 | 77.3 ± 3.52 | 49.8 ± 0.5 | 1.6 | – | – | – | – | – | melting point: 267 to 268 °C; inhibition at 12.5 µM [1]: 4%; inhibition at 100 µM [3]: 7%; DPPH %Inh [4]: 1%; XXO %Inh [5]: 33%
2 | COc1c2occc2cc2ccc(=O)oc12 [8-MOP, 8-methoxypsoralen, reference compound] | – | – | – | – | significantly reduced | > 100 | 24.7 ± 3.02 | > 100 | > 100 | inhibition at 50 µg/mL ([2]; I = %inhibition lower than 50%, read-out: Cytotoxic activity MDA-MB-231 %Inhibition): 6%; dark and light-activated cytotoxicity against SK-BR-3 (%viability screening) ([10]; 50 µM, absence and presence of UVA (2.0 J cm^−2), Fig. 3): little to no activity; inhibition at 50 µg/mL ([7]; Homo sapiens, T47D, light or radiation study, 48 h, without UVA, I = %inhibition lower than 50%, read-out: Cytotoxic activity T47-D %Inhibition): 16%
3 | CS(=O)(=O)CCNCc1ccc(-c2ccc3ncnc(Nc4ccc(OCc5cccc(F)c5)c(Cl)c4)c3c2)o1 [Lapatinib, reference compound] | 53.37 ± 0.31 | 48.8 ± 9.45 | 9.78 ± 0.46 | 5.0 | – | 25.3 ± 0.99 | 0.16 ± 0.03 | 73 ± 2.53 | 8.6 ± 0.82 | morphology of SK-BR-3 cells under light activation ([13]; UVA 2.0 J cm^−2): morphological changes indicating apoptosis; morphology of SK-BR-3 cells under dark condition ([13]; dark): morphological changes indicating apoptosis; phototoxic potential (3T3 NRU assay) [14]: phototoxic potential
4 | COc1c2ccoc2cc2oc(=O)ccc12 [bergapten] | – | – | – | – | significantly reduced | – | – | – | – | IC50 [15]: 1.2 µM; levels of estrogen receptor [16]: reduced
